Data taken from US12478617B2, “Lipidated peptide inhibitors of interleukin-23 receptor” (JANSSEN BIOTECH, INC., priority 2021, dated 2025).
Positions of bridges follow the written chain, without caps; N, C: chain ends. Non-standard residues stand in square brackets, D forms with d. Residues, ends and D or L forms follow the SMILES beside them. *: point of attachment. X1 = O=C(O)CCCCCCCCCCCCCCC(=O)N[C@@H](CCCCN*)C(=O)O; Trp(7-Me) = Cc1cccc2c(C[C@H](N)C(=O)O)c[nH]c12; 2Nal = N[C@@H](Cc1ccc2ccccc2c1)C(=O)O; AEF = NCCOc1ccc(C[C@H](N)C(=O)O)cc1; 3Pal = N[C@@H](Cc1cccnc1)C(=O)O; Pen = CC(C)(S)[C@H](N)C(=O)O; Thp = NC1(C(=O)O)CCOCC1; AEEA = NCCOCCOCC(=O)O; Sar = CNCC(=O)O

Legend:
[1] = target: T1, peripheral blood mononuclear cells (PBMCs) (Homo sapiens, UniProt Q5VWK5); assay: PBMC pSTAT3 assay; type: cell-based; conditions: PBMCs from healthy donors, anti-CD3/IL-1β cultured; peptide 30 min, then IL-23 5 ng/mL for 30 min; phosphorylated STAT3 (Meso Scale Discovery)
T1 sequence (Q5VWK5 24-629): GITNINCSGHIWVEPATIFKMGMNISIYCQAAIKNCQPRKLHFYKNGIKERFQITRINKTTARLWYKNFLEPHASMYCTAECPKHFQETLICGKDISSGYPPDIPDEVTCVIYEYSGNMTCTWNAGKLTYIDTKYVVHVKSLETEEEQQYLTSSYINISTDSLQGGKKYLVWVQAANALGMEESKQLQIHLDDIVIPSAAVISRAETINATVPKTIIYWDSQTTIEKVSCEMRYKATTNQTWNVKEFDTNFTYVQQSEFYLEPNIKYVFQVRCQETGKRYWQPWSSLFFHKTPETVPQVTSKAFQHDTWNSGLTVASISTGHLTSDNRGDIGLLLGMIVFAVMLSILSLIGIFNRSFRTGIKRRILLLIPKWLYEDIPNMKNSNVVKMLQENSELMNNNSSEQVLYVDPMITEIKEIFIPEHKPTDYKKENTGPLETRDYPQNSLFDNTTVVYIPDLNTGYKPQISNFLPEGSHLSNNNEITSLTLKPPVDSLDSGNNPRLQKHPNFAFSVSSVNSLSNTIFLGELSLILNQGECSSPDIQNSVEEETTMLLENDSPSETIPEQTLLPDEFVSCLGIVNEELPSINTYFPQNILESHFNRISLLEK
Excerpt: IL-23 binding to IL-23 receptors results in the activation of the Signal Transducer and Activator of Transcription 3 (STAT3) by phosphorylation and downstream signaling events. Accordingly. the ability of the inhibitors described herein to block IL-23 action can be assessed by monitoring the status of STAT3 activation in response to IL-23. This may be accomplished in reporter cell assays or in intact cells such as peripheral blood mononuclear cells (PBMCs).

IL-23R = target: T2, IL-23R (Homo sapiens, UniProt Q5VWK5); assay: IL23R Reporter Assay; type: cell-based
T2 construct: HEK293 cells containing IL-23R, IL-12RP31 and a firefly luciferase reporter gene driven by a STAT-inducible promoter (Promega); host or cells: HEK293
T2 sequence (Q5VWK5 24-629): T1 sequence (Q5VWK5 24-629)
In short: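 Luminescence from BioGlo, read after cells were moved to 20 °C, followed a 5 h incubation at 37 °C, 5% CO2 with DMSO-diluted test compounds.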

[2] = from Ac-Pen-Asn-Thr-7MeTrp-Lys(Ac)-Pen-AEF-2Nal-THP-Lys(Ac)-Asn-3Pya-Sar-PEG2-PEG2-eLys(C16OH)-OH; disulfide bond; 20-membered ring; I2/AcOH; ACN/H2O; […]

Compound: CC(=O)NCCCC[C@@H]1NC(=O)[C@H](Cc2c[nH]c3c(C)cccc23)NC(=O)[C@H]([C@@H](C)O)NC(=O)[C@H](CC(N)=O)NC(=O)[C@@H](NC(C)=O)C(C)(C)SSC(C)(C)[C@@H](C(=O)N[C@@H](Cc2ccc(OCCN)cc2)C(=O)N[C@@H](Cc2ccc3ccccc3c2)C(=O)NC2(C(=O)N[C@@H](CCCCNC(C)=O)C(=O)N[C@@H](CC(N)=O)C(=O)N[C@@H](Cc3cccnc3)C(=O)N(C)CC(=O)NCCOCCOCC(=O)NCCOCCOCC(=O)NCCCC[C@H](NC(=O)CCCCCCCCCCCCCCC(=O)O)C(=O)O)CCOCC2)NC1=O [Example 8, MeCO-Pen*-N-T-7MeW-K(Ac)-Pen*-AEF-2Nal-THP—K(Ac)-N— 3Pva-Sar-PEG2-PEG2-eK(C160H)-COOH (*Pen-Pen form disulfide bond)] (Ac-[Pen]NT[Trp(7-Me)]K(Ac)[Pen][AEF][2Nal][Thp]K(Ac)N[3Pal][Sar][AEEA][AEEA]-X1; disulfide 1-6)
- IC50 [1]: 0.21 nM
- IC50 (IL-23R): 0.089 nM
- ring closure, yield after HPLC [2]: 7%
